Columns and labels:
B16F10 melanoma cells = test: Primary B16F10 melanoma tumor in mice; type: in vivo; details: C57BL/6 mice; sodium decanoate 100 mg/kg oral daily, doxorubicin 5 mg/kg (subtherapeutic dose); FIG. 3
Method: Female 6-8 week old C57BL/6 mice were injected subcutaneously on day 0 with 50 μL of 3.75×10^4 viable B16F10 melanoma cells from ATCC (source of cell culture, Dr. I. J. Fidler). On day 14, tumors reached […] and animals were randomized for treatment. […] Mice were sacrificed on day 12.

IL-12 production = IL-12 production in LPS-stimulated RAW264.7 cells (ELISA); type: cell-based; details: 100 ng/mL LPS, 21 h; for IL-12: compound 0.5 mM
Method: The effect of selected compounds on IL-12 production was undertaken in RAW264.7 (macrophage-like) cells. RAW264.7 cells were cultured with 100 ng/mL of LPS in presence or absence of compounds for 21 h in a humidified atmosphere of 95% air-5% carbon dioxide at 37° C. IL-12 concentration in the culture medium was measured using the IL-12 ELISA according to the manufacturer (BD Biosciences) recommendations. […] Compounds have no effect on IL-12 production in the absence of LPS.

CTGF production = test: Inhibition of TGF-induced CTGF production in NHDF (ELISA); type: cell-based; details: Homo sapiens, 10 ng/mL TGF-β, 48 h
Method: The effect of selected compounds on CTGF production was undertaken in normal human dermal fibroblast (NHDF) or human mesangial cells. Cells were cultured in DMEM (0.5% FBS) with or without 10 ng/mL of TGF-β for 48 h in a humidified atmosphere of 95% air-5% carbon dioxide at 37° C. CTGF measurement in the culture medium was measured using the CTGF ELISA according to the manufacturer (Prepotech) recommendations.

P815 mastocytoma = test: Primary P815 mastocytoma tumor growth in mice; type: in vivo
Excerpt: The syngeneic tumor P815 is a DBA/2 (H-2^d)-derived mastocytoma obtained from ATCC (TIB64). […] Mice were sacrificed around day 23 (depending on the experiment). […] Tumors were palpable, in general, 3-5 days post-inoculation.

P815 liver metastasis = P815 liver metastasis in mice; type: in vivo
Method: The syngeneic tumor P815 is a DBA/2 (H-2^d)-derived mastocytoma obtained from ATCC (TIB64). P815 cells were grown in DMEM containing 10% fetal bovine serum. At day 0, 50 μL of 5×10^5 viable P815 cells were subcutaneously injected to produce localized tumors in 6- to 8-week old DBA/2 mice. The animals were then serially monitored by manual palpation for evidence of tumor. […] Mice were sacrificed around day 23 (depending on the experiment). Serial tumor volume was obtained by bi-dimensional diameter measurements with calipers, using the formula 0.4 (a×b^2) where “a” was the major tumor diameter and “b” the minor perpendicular diameter. Tumors were palpable, in general, 3-5 days post-inoculation.
It is known that P815 cells have the capacity to metastasize to the liver.

HK-2 cells = test: TGF-β induced epithelial to mesenchymal transition in HK-2 cells (real-time PCR of E-cadherin, CTGF, collagen 1); type: cell-based, human
Method: (§1) FIG. 20 is a bar graph showing the effect of Compound XVII on E-cadherin in normal HK-2 cells and in TGF-β induced EMT cells. Real-time PCR using human E-cadherin TaqMan® Gene Expression Assay normalized to human GAPDH endogenous control; reference is TGF-δ-treated cells 24 h (RQ=1). *means p<0.05, and ** means p<0.01 (t-test).
as §1, with “FIG. 21” for “FIG. 20”, “on CTGF” for “on E-cadherin”, “human CTGH” for “human E-cadherin”, “is TGF-β-treated” for “is TGF-δ-treated”
FIG. 22 is a bar graph showing the effect of Compound XVII on collagen 1 in normal HK-2 cells and in TGF-β induced EMT cells. Real-time PCR using human Collagen 1 TaqMan® Gene Expression Assay normalized to human GAPDH endogenous control; reference is TGF-β-treated cells 24 h (RQ=1). ** means p<0.01 (t-test).
Real-time PCR using human CTGF TaqMan® Gene Expression Assay and Collagen 1 TaqMan® Gene Expression Assay normalized to human GAPDH endogenous control; reference is TGF-β-treated cells 24 h (RQ=1).
FIG. 24 is a bar graph showing the effect of Compound I on CTGF and collagen 1 expression in normal HK-2 cells and in TGF-β induced EMT cells. Real-time PCR using human CTGF TaqMan® Gene Expression Assay and Collagen 1α1 TaqMan® Gene Expression Assay normalized to human GAPDH endogenous control; reference is TGF-β-treated cells 24 h (RQ=1). Compound I is added at 0.5 mM.
Further analysis was undertaken to determine the effect of Compoounds on EMT. The effect of Compound XVII on TGF-β induced EMT was analyzed on human epithelial […] cells (HK-2). To assess the progression of EMT, the pro-epithelial marker E-cadherin and the mesenchymal/pro-fibrotic markers CTGF and collagen 1 were assayed by quantitative real-time PCR. To determine the efficacy of Compound XVII in inhibiting TGF-β-induced EMT, verification of the ability of TGF-β to induce EMT in HK-2 cells.

CT-26WT colon tumor = test: Primary colon CT-26WT tumor in mice; type: in vivo; details: FIG. 12 and 13; for efficacy on primary tumor CT-26 (single agent): sodium decanoate oral 200 mg/kg daily, 5-fluorouracil i.p. 40 mg/kg day 6, 13, 20, Compound XV oral
Method: The syngeneic tumor CT-26WT (CT-26) is a colon tumor cell line obtained from ATCC (CRL-2638). CT-26 cells were grown in RPMI containing 10% fetal bovine serum. At day 0, 50 μL of 5×10^6 viable CT-26 cells were subcutaneously injected to produce localized tumors in 6- to 8-week old mice. The animals were then serially monitored by manual palpation for evidence of tumor. […] Mice were sacrificed at day 25. Serial tumor volume was obtained by bi-dimensional diameter measurements with calipers, using the formula 0.4 (a×b^2) where “a” was the major tumor diameter and “b” the minor perpendicular diameter. Tumors were palpable, in general, 3-5 days post-inoculation.

[1] = TGF-β-stimulated cells, 24 h, normalized to GAPDH, sodium decanoate and Compound I at 0.5 mM
[2] = compound alone, no TGF-β, sodium decanoate and Compound I at 0.5 mM

With `COc1cccc2c1C(=O)c1c(O)c3c(c(O)c1C2=O)C[C@@](O)(C(=O)CO)C[C@@H]3O[C@H]1C[C@H](N)[C@H](O)[C@H](C)O1` [doxorubicin, reference compound] the “reduction of primary tumor volume compared to the control” value (B16F10 melanoma cells) was “around 25%”.

With `CCCCCCCCC(Oc1ccc(C(=O)CCC)cc1)C(=O)[O-].[Na+]` (racemic) [Compound XXV, Sodium (RS)-2-[4-Butyrylphenoxy]decanoate] the “IL-12 (pg/mL)” value (IL-12 production; compound 0.04 mM) was 73 (at 0.04 mM) pg/mL and the melting point was 262 to 278 °C.

For `CCCCCc1ccc(C(=O)[O-])cc1.[Na+]` [Compound XI, Sodium salt of 4-pentylbenzoic acid], the inhibition at 500 µM (CTGF production) was 28% and the “IL-12” value (IL-12 production) was 78 pg/mL.

With `CCCCOc1ccc(C(CC(=O)[O-])c2cccc(F)c2)cc1.[Na+]` (centres unmarked) the melting point was 135 °C.

For `CCCCCCCC(=O)c1cccc2c1CC(C(=O)[O-])C2.[Na+]` (racemic) [Compound XLI, Sodium (RS)-4-Octanoylindane-2-Carboxylate], the “IL-12 (pg/mL)” value (IL-12 production; compound 0.1 mM) was 25 (at 0.1 mM) pg/mL.

For `CCCCc1cccc(CCC(=O)[O-])c1.[Na+]` [Compound III], the inhibition at 500 µM (CTGF production) was 46% and the “IL-12” value (IL-12 production) was 62 pg/mL.

For `CCCC/C=C/c1cccc(CC(=O)[O-])c1.[Na+]` [Compound VI], the “IL-12” value (IL-12 production) was 53 pg/mL.

In the case of `CCCCCCCC(=O)c1cccc(C(=O)[O-])c1.[Na+]` [Compound XVIII, Sodium 3-octanoylbenzoate], the inhibition at 200 µM (CTGF production) is reported as 49% and the “IL-12” value (IL-12 production) is reported as 1099 pg/mL.

In the case of `CCCCCCCC(=O)c1ccc2c(c1)CC(C(=O)[O-])C2.[Na+]` (racemic) [Compound XIX, Sodium (RS)-5-octanoylindane-2-carboxylate], the inhibition at 63 µM (CTGF production; 63 μM) is reported as 45% and the “IL-12 (pg/mL)” value (IL-12 production; compound 0.05 mM) is reported as 53 (at 0.05 mM) pg/mL.

With `CCCCCCCCC(Oc1ccc(C(=O)CCCCC)cc1)C(=O)[O-].[Na+]` (racemic) [Compound XXVI, Sodium (RS)-2-[4-Hexanoylphenoxy]decanoate] the “IL-12 (pg/mL)” value (IL-12 production; compound 0.02 mM) was 54 (at 0.02 mM) pg/mL and the melting point was 275 to 280 °C.

With `CCCCCc1cc(O)cc(CC(=O)[O-])c1.[Na+]` [Compound VIII, Sodium salt of [3-Hydroxy-5-pentylphenyl]acetic acid] the inhibition at 200 µM (CTGF production) was 47% and the “IL-12” value (IL-12 production) was 17 pg/mL.

With `CCCCCc1cccc(CCC(=O)[O-])c1.[Na+]` [Compound II, Sodium salt of 3-(3-pentylphenyl)propionic acid] the inhibition at 100 µM (CTGF production; 100 μM) was 38%, the “IL-12” value (IL-12 production) was 351 pg/mL and the P815 tumor growth (P815 mastocytoma; oral 200 mg/kg, FIG. 7 and 8) was “significant reduction (p<0.05)”.

In the case of `CCCCCCCC(=O)c1ccc(OC(CCCCCC)C(=O)[O-])cc1.[Na+]` (racemic) [Compound XXIV, Sodium (RS)-2-[4-Octanoylphenoxy]octanoate], the “IL-12 (pg/mL)” value (IL-12 production; compound 0.02 mM) is reported as 12 (at 0.02 mM) pg/mL and the melting point is reported as 165 to 170 °C.

With `CCCCCCCCC(Oc1ccc(C(=O)CCCCCCC)cc1)C(=O)[O-].[Na+]` (racemic) [Compound XVII, Sodium (RS)-2-[4-octanoylphenoxy]decanoate] the “reduction of the number of mice with liver metastasis” value (P815 liver metastasis; 50 mg/kg, FIG. 18) was “approximately 20%”, the “TGF-β induced EMT” value (HK-2 cells; HK-2 cells, sodium decanoate and Compound I at 0.5 mM) was “significantly inhibited” and the E-cadherin transcript expression (HK-2 cells; TGF-β induced EMT cells, 24 h, normalized to GAPDH, FIG. 20) was “upregulation”. For the same compound, the CTGF transcript expression (HK-2 cells; [1]) was “downregulation”, the “collagen 1 transcript expression” value (HK-2 cells; [1]) was “downregulation” and the “basal expression of CTGF” value (HK-2 cells; [2]) was “downregulate”. For the same compound, the “basal expression of collagen 1” value (HK-2 cells; [2]) was “downregulate”, the inhibition at 7.5 µM (CTGF production; 7.5 μM) was 40% and the “IL-12 (pg/mL)” value (IL-12 production; compound 0.05 mM) was 209 (at 0.05 mM) pg/mL. The P815 tumor growth (P815 mastocytoma; FIG. 17) was “significant reduction (p<0.05)” and the “efficacy compared with soluble acetylsalicylic acid” value (P815 mastocytoma; FIG. 17) was “better efficacy to the gold standard compound”.

With `O=c1[nH]cc(F)c(=O)[nH]1` [5-fluorouracil, reference compound] the “efficacy on primary tumor CT-26 (single agent)” value (CT-26WT colon tumor) was “weak efficacy”.

For sodium decanoate and 5-fluorouracil, the “tumor growth T/C” value (CT-26WT colon tumor; combination, from day 16 to day 26) was “approximately 40%”.

In the case of `CCC/C=C/c1cccc(CC(=O)[O-])c1.[Na+]` [Compound IV, Sodium salt of E-(3-pent-1-enyl-phenyl)acetic acid], the inhibition at 500 µM (CTGF production) is reported as 34% and the “IL-12” value (IL-12 production) is reported as 19 pg/mL.

For `CCCCCCc1cccc(C(=O)[O-])c1.[Na+]` [Compound XIII, Sodium salt of 3-hexylbenzoate], the inhibition at 125 µM (CTGF production; 125 μM) was 29% and the “IL-12 (pg/mL)” value (IL-12 production; compound 0.125 mM) was 18 (at 0.125 mM) pg/mL.

For `O=C([O-])CCc1ccc(NCc2cccc(Oc3ccccc3)c2)cc1.[Na+]` [Compound XV, 3-(4-(3-phenoxy-benzylamino)phenyl) propionic acid], the “reduction of mice with liver metastasis” value (P815 liver metastasis; oral 200 mg/kg, p<0.05, FIG. 9 and 10) was 50%, the “efficacy on primary tumor CT-26 (single agent)” value (CT-26WT colon tumor) was “weak efficacy” and the inhibition at 20 µM (CTGF production; 20 μM) was 22%. The “IL-12” value (IL-12 production) was 37 pg/mL and the P815 tumor growth (P815 mastocytoma; oral 200 mg/kg, FIG. 7 and 8) was “significant reduction (p<0.05)”.

With `CCCCCc1cc(CC(=O)[O-])ccc1O.[Na+]` [Compound IX, Sodium 2-[4-Hydroxy-3-pentylphenyl]acetate] the “IL-12” value (IL-12 production) was 20 pg/mL and the melting point was 193 to 197 °C.

Reference: US9439882B2, “Compounds and compositions for the treatment of cancer” (PROMETIC BIOSCIENCES, INC., priority 2010, dated 2016)
